From ChEMBL document CHEMBL5260811, “Drug development against tuberculosis: Impact of alkaloids” (Eur J Med Chem, 2017) come the findings set out here.

In brackets after ≈: the same amount, converted by molar mass. Starred links: 1 amine or outer side, 2 acyl side, 3 side chain; linkers in the order of their positions; H or OH if unused. Positions of bridges follow the written chain, without caps; N, C: chain ends. Non-standard residues stand in square brackets, D forms with d. Residues, ends and D or L forms follow the SMILES beside them. ξ: configuration not given here. *: point of attachment. X2 = N=C1NCCC([C@H](N[*:1])C(=O)[*:2])N1; ΔAla(Z-3-ureido) = NC(=O)N/C=C(\N)C(=O)O; ξβ3hOrn = NCCCC(N)CC(=O)*; Dap = NC[C@H](N)C(=O)O

Assay [1] deals with Mycobacterium tuberculosis. As to the kind of experiment: Antimycobacterial activity against Mycobacterium tuberculosis Rv3790 harbouring DprE1 gene. The assay is classed as functional.
Assay [2] deals with Mycobacterium tuberculosis. Briefly: Antimycobacterial activity against Mycobacterium tuberculosis harbouring katG gene. The assay is classed as functional.
The subject of assay [3] is Mycobacterium tuberculosis. As to the kind of experiment: Antimycobacterial activity against Mycobacterium tuberculosis harbouring fdxA gene. The assay is classed as functional.
The subject of assay [4] is Mycobacterium tuberculosis. As to the kind of experiment: Antimycobacterial activity against Mycobacterium tuberculosis Rv1302 harbouring wecA gene. Format: functional.
The test system of assay [5] is Mycobacterium tuberculosis. Briefly: Antimycobacterial activity against Mycobacterium tuberculosis Rv1302 harbouring rfe gene. The assay is classed as functional.
The subject of assay [6] is Mycobacterium tuberculosis. Briefly: Antimycobacterial activity against Mycobacterium tuberculosis Rv2156c harbouring mraY gene. Format: functional.
Assay [7] has as its system Mycobacterium tuberculosis. As to the kind of experiment: Antimycobacterial activity against Mycobacterium tuberculosis harbouring rrs gene. Format: functional.
The subject of assay [8] is Mycobacterium tuberculosis. Briefly: Antimycobacterial activity against rifampicin-resistant Mycobacterium tuberculosis. The assay is classed as functional.
Assay [9] has as its system Mycobacterium tuberculosis. As to the kind of experiment: Antimycobacterial activity against Mycobacterium tuberculosis 000019 harbouring rrs gene. Format: functional.
The test system of assay [10] is Mycobacterium tuberculosis. Briefly: Antimycobacterial activity against Mycobacterium tuberculosis harbouring thyA gene. Format: functional.
The subject of assay [11] is Mycobacterium tuberculosis. Briefly: Antimycobacterial activity against Mycobacterium tuberculosis Rv0503c harbouring cmaA2 gene. Format: functional.
Assay [12] deals with Mycobacterium tuberculosis. Briefly: Antimycobacterial activity against Mycobacterium tuberculosis Rv2068c harbouring blaC gene. Format: functional.
The test system of assay [13] is Mycobacterium tuberculosis. Briefly: Antimycobacterial activity against Mycobacterium tuberculosis Rv0050 harbouring ponA1 gene. The assay is classed as functional.
Assay [14] deals with Mycobacterium tuberculosis. Briefly: Antimycobacterial activity against drug-resistant Mycobacterium tuberculosis. The assay is classed as functional.
The subject of assay [15] is Mycobacterium tuberculosis. Briefly: Antimycobacterial activity against Mycobacterium tuberculosis Rv1305 harbouring atpE gene. Format: functional.
The test system of assay [16] is Mycobacterium tuberculosis. Briefly: Antimycobacterial activity against multi-drug resistant Mycobacterium tuberculosis clinical isolates. The assay is classed as functional.
Assay [17] has as its system Mycobacterium tuberculosis. Briefly: Antimycobacterial activity against extensively drug resistant Mycobacterium tuberculosis clinical isolates. Format: functional.
Assay [18] relates to Mycobacterium tuberculosis. As to the kind of experiment: Antimycobacterial activity against Mycobacterium tuberculosis Rv2163c harbouring ftsI gene. The assay is classed as functional.
Assay [19] concerns Mycobacterium tuberculosis. As to the kind of experiment: Antimycobacterial activity against Mycobacterium tuberculosis Rv2163c harbouring pbpB gene. The assay is classed as functional.
Assay [20] deals with Mycobacterium tuberculosis. Briefly: Antimycobacterial activity against Mycobacterium tuberculosis Rv0006 harbouring gyrA gene. Format: functional.
Assay [21] has as its system Mycobacterium tuberculosis. Briefly: Antimycobacterial activity against Mycobacterium tuberculosis Rv0005 harbouring gyrB gene. The assay is classed as functional.
In assay [22] the test system is Mycobacterium tuberculosis. Briefly: Antimycobacterial activity against Mycobacterium tuberculosis Rv0706 harbouring rplV gene. Format: functional.
Assay [23] has as its system Mycobacterium tuberculosis. As to the kind of experiment: Antimycobacterial activity against Mycobacterium tuberculosis harbouring embCAB gene. Format: functional.
Assay [24] has as its system Mycobacterium tuberculosis. Briefly: microbe, parasite or virus in culture.

For `CCOC(=O)NC(=O)c1ccsc1NC(=O)c1nc2ccccc2s1`, the MIC in assay [1], in assay [2] and in [3] was 0.01 µg/mL (≈ 0.0266 µM) throughout.
As to `CCCCc1ccc(NC(=O)C2=CCN(C)[C@@H]([C@H](O[C@@H]3O[C@H](CN)[C@@H](O)[C@H]3O)[C@H]3O[C@@H](n4ccc(=O)[nH]c4=O)[C@H](O)[C@@H]3O)C(=O)N2C)cc1`, the MIC in [4] and in assay [5] was 1.56 µg/mL (≈ 2.27 µM) throughout.
For `CCCCCCCCCC(=O)O[C@H]1[C@@H](OC)[C@H]([C@H](O[C@@H]2OC(C(=O)N[C@@H]3CCC[C@H](C)NC3=O)=C[C@@H](O)[C@H]2O)[C@H](N)O)O[C@@H]1n1ccc(=O)[nH]c1=O`, the MIC in assay [6] amounted to 0.12 µg/mL (≈ 0.162 µM).
On to `N=C1NCCC([C@@H]2NC(=O)/C(=C/NC(N)=O)NC(=O)[C@H](CNC(=O)CC(N)CCCN)NC(=O)[C@H](CO)NC(=O)[C@@H](N)CNC2=O)N1` (stereo partly drawn) (H-[Dap]S[Dap](ξβ3hOrn)[ΔAla(Z-3-ureido)][X2]; lactam 1-C), for which the MIC in assay [7] is 1.25 µg/mL (≈ 1.87 µM).
Turning to `COc1ccc2c3c(c4cc(OC)c(OC)cc4c2c1)CN1CCCC1C3` (stereo not drawn) [(+/-)-DEOXYTYLOPHORININE], in [8], the MIC amounted to 6.25 µg/mL (≈ 17.2 µM).
In assay [9], `NCC[C@H](O)C(=O)N[C@@H]1C[C@H](N)[C@@H](O[C@H]2O[C@H](CN)[C@@H](O)[C@H](O)[C@H]2O)[C@H](O)[C@H]1O[C@H]1O[C@H](CO)[C@@H](O)[C@H](N)[C@H]1O` [AMIKACIN] showed an MIC of 0.12 µg/mL (≈ 0.205 µM).
In [10], `Nc1ccc(C(=O)O)c(O)c1` [AMINOSALICYLIC ACID] displayed an MIC of 1 µg/mL (≈ 6.53 µM).
Compound `CC(=O)Nc1ccc(/C=N/NC(N)=S)cc1` [AMITHIOZONE] returned an MIC in [11] of 0.1 µg/mL (≈ 0.423 µM).
As for `CC1(C)S[C@@H]2[C@H](NC(=O)[C@H](N)c3ccc(O)cc3)C(=O)N2[C@H]1C(=O)O` [AMOXICILLIN], the MIC in assay [12] and in assay [13] was 10 µg/mL in each case.
For `COc1nc2ccc(Br)cc2cc1[C@@H](c1ccccc1)[C@@](O)(CCN(C)C)c1cccc2ccccc12` [BEDAQUILINE], the values for the MIC in assay [14] and in [15] were 60 µg/mL (≈ 108 µM) and 0.063 µg/mL (≈ 0.113 µM), respectively.
On to `C[C@H]1COC2(CCN(c3nc(=O)c4cc(C(F)(F)F)cc([N+](=O)[O-])c4s3)CC2)O1` [BTZ-043], for which the values for the MIC in assay [1], in assay [16] and in assay [17] were 0.001 µg/mL (≈ 0.00232 µM), 0.0001 µg/mL (≈ 0.000232 µM) and 0.001 µg/mL (≈ 0.00232 µM), respectively.
With `CC1(C)C[C@@H]1C(=O)N/C(=C\CCCCSC[C@H](N)C(=O)O)C(=O)O` [CILASTATIN], the MIC in assay [18] turned out to be 0.16 µg/mL (≈ 0.446 µM); in [19] it was 0.16 µg/mL.
Consider `O=C(O)c1cn(C2CC2)c2cc(N3CCNCC3)c(F)cc2c1=O` [CIPROFLOXACIN], for which the MIC in assay [20] and in assay [21] was 0.125 µg/mL (≈ 0.377 µM) each time.
In the case of `CC[C@H]1OC(=O)[C@H](C)[C@@H](O[C@H]2C[C@@](C)(OC)[C@@H](O)[C@H](C)O2)[C@H](C)[C@@H](O[C@@H]2O[C@H](C)C[C@H](N(C)C)[C@H]2O)[C@](C)(OC)C[C@@H](C)C(=O)[C@H](C)[C@@H](O)[C@]1(C)O` [CLARITHROMYCIN], the MIC in [22] worked out at 1 µg/mL (≈ 1.34 µM).
For the compound `O=C(O)[C@H]1/C(=C/CO)O[C@@H]2CC(=O)N21` [CLAVULANIC ACID], the MIC in [19], in assay [12] and in assay [13] was 0.23 µM each time.
In assay [23], `CC[C@@H](CO)NCCN[C@@H](CC)CO` [ETHAMBUTOL] yielded an MIC of 1 µg/mL (≈ 4.89 µM).
In assay [24], `CCc1cc(C(N)=S)ccn1` [ETHIONAMIDE] registered an MIC of 0.6 µg/mL (≈ 3.61 µM).
As for `COc1c(N2CCNC(C)C2)c(F)cc2c(=O)c(C(=O)O)cn(C3CC3)c12` (stereo not given) [GATIFLOXACIN], the MIC in assay [20] and in assay [21] was 1 µg/mL (≈ 2.66 µM) in each case.
